# Laboratory results published in patent US20100173991A1, “METHOD FOR THE SYNTHESIS OF A-RING AROMATIZED ACETYL MINOCYCLINES” (priority 2007, published 2010).
# Where a name gives a salt, the structure may show the parent alone.
# Legend:
# [1] = tested on: Astroglia cells, non neoplastic embryonal astrocyte cell line of the rat, damaged by H2O2; type: cell-based; settings: 30 min pre-incubation with 1.0, 5.0 or 25.0 μM, then 1.0 or 3.0 mM H2O2 for 2 hours; microscopic assessment of cell shape and mitochondria
# Protocol: The test of the cell-protecting properties of the substances produced in the inventive method was carried out, exemplarily for a pure form of pentaacetyl cyclin of Formula II, by means of an astrocyte damaging model. This model is used for the examination of neurodegenerative diseases caused by oxidative stress or for the test of cell-protecting substances that can avoid or reduce such damage. In the exemplary model astrocytes are damaged by hydrogen peroxide (H2O2) and afterwards the functionality and morphology of the cells and mitochondria are microscopically assessed. An overproduction of H2O2 as reactive oxygen species (ROS) is considered to be, amongst others, the cause for many neurodegenerative processes and diseases in the CNS, such as stroke, Alzheimer's disease Parkinson's disease, post-traumatic injuries of the brain and spinal cord. Astonishingly, already much lower doses of pentaacetyl cyclin of Formula II could considerably reduce the damage of the mitochondria compared to the comparative substance minocycline hydrochloride (Example 3 and FIG. 4).
# Astroglia cells, i.e. non neoplastic embryonal astrocyte cell line of the rat [Chamaon, K., Kirches, E., Kanakis, D., Braeuninger, S., Dietzmann, K., and Mawrin, C. (2005). […] A Zeiss Axiophot fluorescence microscope with CCD camera (AxioCam MRc) was used for the visual inspection and documentation. […]
# E. coli C 600 hfc strain = test: Antibiotic effect in the agar diffusion test; type: cell-based; settings: filter paper sheets soaked with DMSO solutions 100 μM to 2.5 mM; LB agar, 37° C., 24 hours
# Protocol: The test of the antibiotic effect of the pentaacetyl cyclin obtained in the inventive method was performed by using an E. coli strain (Embodiment 4). […] The liquid culture (cultivated in LB-Lennox-L-Broth-Base for 24 hours) of an E. coli suspension (150 μl) of the C 600 hfc strain was evenly distributed on LB agar (Lennox-L-Agar, Gibco) by means of a sterile Drigalski spatula. Afterwards, sterile filter paper sheets (diameter 5.3 mm) that have been soaked with sterile DMSO solutions and different concentrations (100 μM to 2.5 mM) of minocycline hydrochloride or pentaacetyl cyclin (Formula II) were placed on the breeding ground. After the incubation of the agars at 37° C. for 24 hours, the antibiotic activity of the substances was assessed on the basis of the diameters of the inhibiting areolas that become visible due to the missing opacification by bacteria.
Compound,concentration showing protective effect against H2O2-induced damage of cells/mitochondria [1],growth inhibition of E. coli (inhibiting areolas) (E. coli C 600 hfc strain)
"CN(C)c1ccc(O)c2c1C[C@H]1C[C@H]3[C@H](N(C)C)C(O)=C(C(N)=O)C(=O)[C@@]3(O)C(O)=C1C2=O [minocycline hydrochloride, Minocycline hydrochloride, reference compound]",25 µM,–
"CC(=O)NC(=O)c1c(OC(C)=O)c2c(c(N(C)C)c1OC(C)=O)CC1Cc3c(N(C)C)ccc(OC(C)=O)c3C(=O)C1=C2OC(C)=O (stereo not drawn) [pentaacetyl cyclin, A-ring aromatized pentaacetyl minocycline]",1.0 µM,does not show any growth inhibition
